Measured values from patent publication US7351711B2, “Tricyclic indanyls as integrin inhibitors” (Janssen Pharmaceutical, N.V., priority 2003, dated 2008).
Where two headings read alike, the source gives them in different places.

Legend:
[1] = molecular target: T1, human purified αVβ5 (Homo sapiens, UniProt P06756+P18084); assay: In vitro solid phase purified αvβ5 binding assay (vitronectin/αVβ5); details: inhibition of vitronectin binding to immobilized αVβ5; read-out: Antagonist IC50 Activity αVβ5
T1 construct: purchased Chemicon International, Inc
T1 sequence (P06756 31-889 limits assumed): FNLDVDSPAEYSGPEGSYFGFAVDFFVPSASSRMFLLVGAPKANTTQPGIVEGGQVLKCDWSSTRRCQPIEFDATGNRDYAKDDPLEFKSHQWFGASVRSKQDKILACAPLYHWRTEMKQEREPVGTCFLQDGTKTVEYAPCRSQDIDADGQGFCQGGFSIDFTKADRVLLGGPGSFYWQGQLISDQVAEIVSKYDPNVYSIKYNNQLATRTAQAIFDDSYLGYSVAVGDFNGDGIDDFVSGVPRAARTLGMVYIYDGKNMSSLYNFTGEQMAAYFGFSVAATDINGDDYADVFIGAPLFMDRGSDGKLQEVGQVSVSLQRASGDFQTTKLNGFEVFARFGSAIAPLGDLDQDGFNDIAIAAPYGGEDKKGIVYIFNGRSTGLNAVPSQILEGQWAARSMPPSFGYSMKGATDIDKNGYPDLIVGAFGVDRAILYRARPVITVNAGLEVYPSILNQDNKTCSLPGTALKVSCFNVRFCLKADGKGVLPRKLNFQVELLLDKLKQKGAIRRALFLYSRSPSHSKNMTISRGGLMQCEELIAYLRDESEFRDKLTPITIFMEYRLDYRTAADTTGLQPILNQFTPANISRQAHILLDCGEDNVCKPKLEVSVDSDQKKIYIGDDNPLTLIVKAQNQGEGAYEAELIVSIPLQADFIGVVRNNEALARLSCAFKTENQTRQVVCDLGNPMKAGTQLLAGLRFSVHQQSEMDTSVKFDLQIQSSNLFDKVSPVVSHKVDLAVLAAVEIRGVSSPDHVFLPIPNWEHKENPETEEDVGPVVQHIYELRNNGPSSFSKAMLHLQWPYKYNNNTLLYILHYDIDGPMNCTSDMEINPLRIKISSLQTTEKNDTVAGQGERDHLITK
T1 sequence (P06756 891-1048 partner limits assumed): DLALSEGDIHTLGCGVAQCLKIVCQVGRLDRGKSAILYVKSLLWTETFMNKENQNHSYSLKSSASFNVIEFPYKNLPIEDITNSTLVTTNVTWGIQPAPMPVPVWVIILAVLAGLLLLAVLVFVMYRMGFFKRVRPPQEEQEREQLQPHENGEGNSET
T1 sequence (P18084 24-799): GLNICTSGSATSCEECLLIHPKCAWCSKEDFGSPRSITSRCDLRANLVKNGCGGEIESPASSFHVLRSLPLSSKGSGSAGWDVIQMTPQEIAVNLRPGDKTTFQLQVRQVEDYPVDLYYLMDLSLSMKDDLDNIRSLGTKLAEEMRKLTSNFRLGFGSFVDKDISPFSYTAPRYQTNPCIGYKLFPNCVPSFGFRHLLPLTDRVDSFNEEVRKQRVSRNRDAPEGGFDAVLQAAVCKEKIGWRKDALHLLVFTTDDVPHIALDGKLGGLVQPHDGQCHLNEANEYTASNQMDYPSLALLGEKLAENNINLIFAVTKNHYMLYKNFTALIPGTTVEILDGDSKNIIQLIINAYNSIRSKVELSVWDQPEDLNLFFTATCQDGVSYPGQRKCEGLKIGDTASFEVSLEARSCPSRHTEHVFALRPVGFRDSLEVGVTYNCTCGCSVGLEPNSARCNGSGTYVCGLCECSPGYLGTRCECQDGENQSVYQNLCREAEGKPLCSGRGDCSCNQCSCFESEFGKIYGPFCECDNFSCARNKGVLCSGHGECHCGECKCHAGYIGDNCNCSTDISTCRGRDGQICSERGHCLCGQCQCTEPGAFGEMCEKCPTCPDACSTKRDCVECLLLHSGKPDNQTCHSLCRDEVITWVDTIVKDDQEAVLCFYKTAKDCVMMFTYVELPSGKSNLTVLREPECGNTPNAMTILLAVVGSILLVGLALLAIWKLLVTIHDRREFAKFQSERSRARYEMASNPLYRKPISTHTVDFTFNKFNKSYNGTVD
Description: (§1) The vitronectin/αvβ3 binding assay methods were derived from Mehta et al. (Biochem J,. 1998, 330, 861). Human αvβ3 (Chemicon International Inc., Temecula, Calif.), at a concentration of 1 μg/ml dissolved in Tris buffer (20 mM Tris, 1 mM CaCl2, 1 mM MgCl2, 10 μM MnCl2, 150 mM NaCl), was immobilized on Immulon 96 well plates (Dynex Technologies, Chantilly, Va.) overnight at 4° C. Plates were washed and treated with blocking buffer (3% BSA in Tris buffer) for 2 h at 37° C. Plates were then rinsed 2 times with assay buffer comprised of Tris buffer. Synthesized compounds were added to wells in duplicate immediately prior to the addition of 2 nM vitronectin (Sigma, St. Louis, Mo.). Following a 3 hour incubation at 37° C., plates were washed 5 times in assay buffer. An anti-human vitronectin IgG rabbit polyclonal antibody (Calbiochem, San Diego, Calif.) was added (1:2000) and plates were incubated for 1 hour at room temperature. VectaStain ABC peroxidase kit reagents (Vector Laboratories, Burlingame, Calif.) employing a biotin labeled anti-rabbit IgG, were utilized for detection of bound antibody. Plates were read at 490 nm on a Molecular Devices (Sunnyvale, Calif.) microplate reader.
In Vitro Solid Phase Purified αvβ5 Binding Assay
The vitronectin/αVβ5 binding assay method was performed in the same manner as the vitronectin/αVβ3 binding assay of Example 2, with the difference that 1 μg/mL of human purified αVβ5 (Chemicon International, Inc.) was immobilized onto Immulon 96 well plates (Dynex Technologies) instead of αVβ3. All other aspects of the assay including buffers, reagents and incubation times remain unchanged.

[2] = molecular target: T2, Human αvβ3 (Homo sapiens, UniProt P05106+P06756); assay: In vitro solid phase purified αvβ3 binding assay (vitronectin/αvβ3); details: for IC50: read-out: Antagonist IC50 Activity αVβ3
T2 construct: purchased Chemicon International Inc., Temecula, Calif
T2 sequence (P06756 31-889 limits assumed): as the sequence (P06756 31-889 limits assumed) above
T2 sequence (P06756 891-1048 partner limits assumed): as the sequence (P06756 891-1048 partner limits assumed) above
T2 sequence (P05106 27-788): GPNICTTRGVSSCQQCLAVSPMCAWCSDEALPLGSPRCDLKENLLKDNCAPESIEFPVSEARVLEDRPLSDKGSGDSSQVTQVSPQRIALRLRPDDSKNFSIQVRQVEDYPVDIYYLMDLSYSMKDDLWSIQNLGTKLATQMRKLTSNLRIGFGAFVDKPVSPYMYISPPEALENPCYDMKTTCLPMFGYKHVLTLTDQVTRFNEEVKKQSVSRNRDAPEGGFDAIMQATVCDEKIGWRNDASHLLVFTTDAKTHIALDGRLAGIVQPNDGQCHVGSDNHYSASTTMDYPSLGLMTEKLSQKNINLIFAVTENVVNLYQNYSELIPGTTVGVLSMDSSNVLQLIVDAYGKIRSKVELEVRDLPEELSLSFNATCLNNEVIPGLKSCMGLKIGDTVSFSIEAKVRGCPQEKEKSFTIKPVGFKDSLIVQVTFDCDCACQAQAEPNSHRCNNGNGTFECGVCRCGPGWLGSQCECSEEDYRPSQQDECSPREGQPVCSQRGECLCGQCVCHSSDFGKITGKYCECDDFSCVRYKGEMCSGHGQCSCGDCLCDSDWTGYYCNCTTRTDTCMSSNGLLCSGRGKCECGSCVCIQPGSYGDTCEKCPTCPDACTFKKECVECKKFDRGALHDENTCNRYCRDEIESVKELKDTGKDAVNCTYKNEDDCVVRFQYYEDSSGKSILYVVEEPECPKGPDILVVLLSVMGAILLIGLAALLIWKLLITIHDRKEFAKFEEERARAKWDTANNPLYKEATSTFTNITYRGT
Description: In Vitro Solid Phase Purified αvβ3 Binding Assay
as §1

| IC50 [1] | IC50 [2] | IC50 ([2]; inhibition of 2 nM vitronectin binding to immobilized αvβ3) | Antagonist activity αVβ3, % @ 50 μM [2] | Structure (SMILES) |
| --- | --- | --- | --- | --- |
| 538 nM | 411 nM |  |  | O=C(O)CC1c2ccccc2C2CN(C(=O)CCCc3ccc4c(n3)NCCC4)CC12 (racemic) [Cpd 15] |
|  |  | > 1 nM |  | O=C(O)CC1c2ccccc2C2CN(C(=O)CCCNc3ccccn3)CCC12 (stereo not drawn) [Cpd 7, {3-[4-(Pyridin-2-ylamino)-butyryl]-2,3,4,4a,9,9a-hexahydro-1H-3-aza-fluoren-9-yl}-acetic acid] |
|  | > 1 nM |  |  | O=C(O)CC1c2ccccc2C2CCN(C(=O)CCc3ccc4c(n3)NCCC4)CC21 (racemic) [Cpd 11] |
|  |  |  | 51% @ 50 μM | O=C(O)CC1c2ccccc2C2CCN(C(=O)CCCc3ccc4c(n3)NCCC4)CC21 (stereo not drawn) [Cpd 10, [2-(4-5,6,7,8-Tetrahydro-[1,8]naphthyridine-2-yl-butyryl)-2,3,4,4a,9,9a-hexahydro-1H-indeno[2,1-c]pyridin-9-yl]-acetic acid] |
| 15 ± 2 nM | 26 ± 8 nM |  |  | O=C(O)CC1c2ccccc2C2CN(C(=O)CCc3ccc4c(n3)NCCC4)CC12 (racemic) [Cpd 12] |
| 217 ± 5 nM | 126 ± 40 nM |  |  | O=C(O)C[C@H]1c2ccccc2[C@@H]2CN(C(=O)Cc3cccc(NC4=NCCCN4)c3)CC[C@H]12 (single isomer, unassigned) [Cpd 2, (3-{2-[3-(1,4,5,6,-Tetrahydro-pyrimidin-2-ylamino)-phenyl]-acetyl}-2,3,4,4a,9,9a-hexahydro-1H-3-aza-fluoren-9-yl)-acetic acid] |
| 1020 ± 180 nM | 66 ± 6 nM |  |  | O=C(O)C[C@@H]1c2ccccc2[C@@H]2CN(C(=O)Cc3cccc(NC4=NCCCN4)c3)CC[C@H]12 (single isomer, unassigned) [Cpd 1, (3-{2-[3-(1,4,5,6,-Tetrahydro-pyrimidin-2-ylamino)-phenyl]-acetyl}-2,3,4,4a,9,9a-hexahydro-1H-3-aza-fluoren-9-yl)-acetic acid] |
| 189 nM | 87 nM |  |  | O=C(O)CC1c2ccccc2C2CN(C(=O)CCc3ccc4c(n3)NCCC4)CCC12 (racemic) [Cpd 4] |
|  | > 1 nM |  |  | O=C(O)CC1c2ccccc2C2CN(C(=O)CCCNc3ccccn3)CCC12 (stereo not drawn) [Cpd 6, {3-[4-(Pyridin-2-ylamino)-butyryl]-2,3,4,4a,9,9a-hexahydro-1H-3-aza-fluoren-9-yl}-acetic acid] |
| 230 ± 40 nM | 85 ± 8 nM |  |  | O=C(O)CC1c2ccccc2C2CN(C(=O)CCCc3ccc4c(n3)NCCC4)CCC12 (racemic) [Cpd 3] |
|  |  |  | 41% @ | O=C(O)CC1c2ccccc2C2CCN(C(=O)CCCc3ccc4c(n3)NCCC4)CC21 (stereo not drawn) [Cpd 9, [2-(4-5,6,7,8-Tetrahydro-[1,8]naphthyridine-2-yl-butyryl)-2,3,4,4a,9,9a-hexahydro-1H-indeno[2,1-c]pyridin-9-yl]-acetic acid] |
| 260 ± 60 nM | 290 ± 90 nM |  |  | O=C(O)CC1c2ccccc2C2CN(C(=O)CCc3ccc4c(n3)NCCC4)CC12 (single isomer, unassigned) [Cpd 13, [2-(3-5,6,7,8-Tetrahydro-[1,8]naphthyrin-2-yl-propionyl)-1,2,3,3a,8,8a-hexahydro-2-aza-cyclopenta[a]inden-8-yl]-acetic acid] |
| 5.8 ± 1.2 nM | 17 ± 3 nM |  |  | O=C(O)C[C@H]1c2ccccc2[C@@H]2CN(C(=O)CCc3ccc4c(n3)NCCC4)C[C@H]12 [Cpd 14, [2-(3-5,6,7,8-Tetrahydro-[1,8]naphthyrin-2-yl-propionyl)-1,2,3,3a,8,8a-hexahydro-2-aza-cyclopenta[a]inden-8-yl]-acetic acid] |
